Patent US9737073B2, “Herbicidal weed control from combinations of fluroxypyr and ALS inhibitors” (Dow AgroSciences LLC, priority 2014, dated 2017)

Assays:
[1] = system: Sida cordifolia L. (heartleaf sida, SIDCO); assay: Postemergence herbicidal weed control, fluroxypyr-meptyl and diclosulam, greenhouse trials (Table 1); type: in vivo; conditions: 14DAA1, 200 g ae/ha
Method: (§1) Seeds of the desired test plant species were planted in a peat-based potting soil, Metro-Mix 360® in plastic pots with a surface area of 128 square centimeters (cm^2). Metro-Mix 360® consists of formulated Canadian sphagnum peat moss, coarse perlite, bark ash, a starter nutrient charge (with gypsum), a slow-release nitrogen and dolomitic limestone. The plants were grown for 7-19 days in a greenhouse with an approximate 14-hour (h) photoperiod which was maintained at about 29° C. during the day and 26° C. during the night. Nutrients and water were added on a regular basis and supplemental lighting was provided with overhead metal halide 1000-Watt lamps as necessary. The plants were treated with postemergence foliar applications when they reached the third to fourth true leaf stage. All treatments were applied using a randomized complete block trial design, with 4 replications per treatment.
Treatments consisted of the compounds as listed in Tables 1 to 4, each compound applied alone and in combination. […]
Treatments were rated at 7 to 21 days after application (DAA) as compared to the untreated control plants. Visual weed control was scored on a scale of 0 to 100 percent where 0 corresponds to no injury and 100 corresponds to complete kill. […]

[2] = system: Chenopodium album (common lambsquarters, CHEAL); assay: Postemergence herbicidal weed control, fluroxypyr-meptyl and cloransulam-methyl, field trials (Table 2); type: in vivo
Method: as §1
Treatments consisted of the compounds as listed in Tables 1 to 4, each compound applied alone and in combination. Commercially formulated products of fluroxypyr-meptyl (STARANE™, 333 grams acid equivalent per liter (g ae/L) EC), diclosulam (SPIDER® 84WG), cloransulam-methyl (FIRSTRATE™ 84WG), chlorimuron-ethyl (CLASSIC® 25WG) and thifensulfuron-methyl (HARMONY® 50SG). Formulated amounts of fluroxypyr-meptyl, diclosulam, cloransulam-methyl, chlorimuron-ethyl and thifensulfuron-methyl were placed in 60 milliliter (mL) glass vials and dissolved in a volume of 30 or 60 mL of a water solution containing Agri-dex crop oil concentrate in a 1% volume per volume (v/v) ratio. Compound requirements are based upon either a 30- or a 60-mL application volume at a rate of 200 liters per hectare (L/ha). Spray solutions of the mixtures were prepared by adding the stock solutions to the appropriate amount of dilution solution to form either a 30- or a 60-mL spray solution with active ingredients in single and two-way combinations. Formulated compounds were applied to the plant material with an overhead Generation III Research Sprayer manufactured by DeVries Manufacturing in Hollandale, Minn., USA. The track sprayer was equipped with an 8003E nozzle calibrated to deliver 200 L/ha at a spray height of 18 inches (43 centimeters (cm)) above average plant canopy.
The treated plants and untreated control plants were placed in a greenhouse as described above and watered by sub-irrigation to prevent wash-off of the test compounds.
Treatments were rated at 7 to 21 days after application (DAA) as compared to the untreated control plants. Visual weed control was scored on a scale of 0 to 100 percent where 0 corresponds to no injury and 100 corresponds to complete kill.
Field trials were conducted using standard herbicide small plot research methodology. Plots varied from 3×3.3 meter (m) to 4.5×10 m (width×length) with 4 replicates per treatment. The crops used in the field trials were grown using normal cultural practices for land preparation, fertilization, seeding and maintenance to ensure good growth of the crop and the weeds.
All treatments in the field trials were applied using either pressurized air or carbon dioxide (CO2) backpack or bicycle sprayers calibrated to apply 100-187 L/ha spray volume. Flat Fan spray nozzles were used in all trials, with water as the diluent applied at 275-300 kilopascals (kPa). Weed sizes at application ranged from 10 to 40 cm tall. Commercially available products of fluroxypyr-meptyl (STARANE™, 180 and 333 g ae/L EC), diclosulam (SPIDER® 84WG), and thifensulfuron-methyl (HARMONY® 75WG) were mixed in water at appropriately formulated product rates to achieve the desired rates based on a unit area of application (hectare) to achieve the desired rates as shown. No adjuvants were tank-mixed with any treatments applied in the field trials. […] Visual weed control was scored on a scale of 0 to 100 percent where 0 corresponds to no injury and 100 corresponds to complete kill. […]

Structure (SMILES): CCCCCCC(C)OC(=O)COc1nc(F)c(Cl)c(N)c1Cl (stereo not shown) [Fluroxypyr-meptyl, fluroxypyr-methylheptyl ester]
- Fluroxypyr-meptyl Mean % weed control [1]: 30.0%
- Fluroxypyr-meptyl Mean % weed control ([2]; 8DAA1, 25 g ae/ha): 33.3%
- Fluroxypyr-meptyl Mean % weed control ([2]; 14DAA1, 25 g ae/ha): 10.0%
- Fluroxypyr-meptyl Mean % weed control ([2]; 14DAA1, 100 g ae/ha): 33.3%
- Fluroxypyr-meptyl Mean % weed control ([2]; 21DAA1, 25 g ae/ha): 18.3%
- Fluroxypyr-meptyl Mean % weed control ([2]; 21DAA1, 50 g ae/ha): 18.3%
- Fluroxypyr-meptyl Mean % weed control ([2]; 21DAA1, 100 g ae/ha): 21.0%
